Test results published in patent US7666391B2, “Breast homing peptides and methods of identifying same using aminopeptidase P” (Burnham Institute for Medical Research, priority 2001, dated 2010).
Square brackets hold non-standard residues; d marks the D form. Ends that are not written are not given here. Peptide text beside a SMILES is read from it. * marks the point of attachment. X1 = NC(Cc1ccccc1)C(O)C(=O)*; βAla = NCCC(=O)O

Assays:
[1] = molecular target: human membrane-bound aminopeptidase P (Homo sapiens, UniProt O43895); conditions: 0.5 mM arg = Pro-Pro in 0.1 M Hepes, pH 8.0; triplicate; cited from earlier work
[2] = molecular target: monkey membrane-bound aminopeptidase P; conditions: 0.5 mM arg = Pro-Pro in 0.1 M Hepes, pH 8.0; triplicate; cited from earlier work
[3] = molecular target: T1, rat membrane-bound aminopeptidase P (Rattus norvegicus, UniProt Q99MA2); conditions: cited from earlier work; for IC50: 0.5 mM arg = Pro-Pro in 0.1 M Hepes, pH 8.0, triplicate
T1 sequence (Q99MA2 23-650): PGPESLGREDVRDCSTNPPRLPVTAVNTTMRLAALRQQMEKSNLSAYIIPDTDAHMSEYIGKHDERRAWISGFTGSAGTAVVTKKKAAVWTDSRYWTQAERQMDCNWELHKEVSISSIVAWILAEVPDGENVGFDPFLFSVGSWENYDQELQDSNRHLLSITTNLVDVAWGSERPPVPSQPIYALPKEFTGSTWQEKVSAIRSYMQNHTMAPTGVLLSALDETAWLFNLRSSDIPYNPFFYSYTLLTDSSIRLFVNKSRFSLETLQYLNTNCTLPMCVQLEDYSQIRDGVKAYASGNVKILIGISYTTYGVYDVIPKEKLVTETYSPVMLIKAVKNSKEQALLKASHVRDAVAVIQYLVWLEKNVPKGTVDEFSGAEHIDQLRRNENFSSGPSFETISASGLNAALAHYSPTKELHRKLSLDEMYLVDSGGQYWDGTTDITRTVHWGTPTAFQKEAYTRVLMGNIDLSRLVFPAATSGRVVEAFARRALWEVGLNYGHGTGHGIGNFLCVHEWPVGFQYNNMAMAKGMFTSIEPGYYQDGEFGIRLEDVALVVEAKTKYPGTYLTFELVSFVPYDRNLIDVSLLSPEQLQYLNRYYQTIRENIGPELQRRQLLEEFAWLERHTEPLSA

[4] = molecular target: bovine membrane-bound aminopeptidase P; conditions: cited from earlier work; for IC50: 0.5 mM arg = Pro-Pro in 0.1 M Hepes, pH 8.0, triplicate
[5] = test system: aminopeptidase P; experiment: Binding of aminopeptidase P cDNA fragment phage to wells coated with […] peptide, with competitors; design: species or system human; conditions: 1 mg free peptide; apstatin 10 μg/ml; IgG 10 μg/ml
Method: The peptide was synthesized in a Symphony synthesizer (Rainin Instruments; Emeryville, Calif.), cyclized, and purified by HPLC. The peptide was immobilized on a 96 well Reacti-Bind® polystyrene strip plate (Pierce; Rockford, Ill.). The wells were then treated three times×200 μl SuperBlock® blocking buffer (Pierce).
A human breast carcinoma cDNA library on T7 phage obtained from Novagen was amplified in a single step by infecting BLT 5615 bacteria. Phage suspension (100 μl, 10^9 pfu/ml) in PBS was incubated in the wells for one hour; the wells were then washed five times with 200 μl PBS and once with elution buffer (Novagen) to elute phage bound with low and intermediate affinity. Phage bound to the immobilized peptide were subsequently recovered by incubating BLT 5615 bacteria in the wells for 10 minutes at room temperature.

[6] = test system: breast tissue; experiment: In vivo phage homing: recovery of injected phage from tissues; design: species or system mice; conditions: breast tissue as compared to control pancreatic tissue
Method: A CX7C library (10^9 plaque forming units) was injected into the tail vein of mice; after seven minutes, the mice were perfused through the heart, and phage rescued from breast tissue. The rescued phage were then amplified and re-injected in four additional consecutive rounds. The number of plaque forming units (pfu) recovered from breast tissue is shown (black bars). As a control, non-recombinant T7 phage were injected (white bars). In round five, the number of pfu of phage recovered from the pancreas also was determined (gray bar).
(§1) The number of pfu recovered from each organ is shown.
A phage display peptide library with the general structure of CX7C, where C is cysteine and X is any amino acid, was constructed in T7 phage essentially as follows. Briefly, complementary oligonucleotides that encoded the random peptide insert as NNK codons, and had 5′EcoRI and 3′HindIII overhangs, were annealed. The resulting double stranded DNA was phosphorylated with T4 polynucleotide kinase (Novagen; Madison, Wis.) and ligated into 1 ug of T7Select415-1b vector arms. The ligated product was directly added to 50 μl of packaging extract and incubated for two hours, yielding 10^8 pfu total recombinants. The recombinants were amplified in 500 ml of liquid culture. […] (Oxford, U.K.: Oxford University Press), 2001.
(§2) In vivo phage selection was performed as described previously with a few modifications. Briefly, mice were anesthetized with avertin and then injected intravenously with 10^9 plaque forming units (pfu) from the CX7C library. Seven minutes after the injection, the mice were perfused through the heart with 10 ml of phosphate buffered saline (PBS). Mammary tissue was then excised, weighed, and homogenized using a Medimachine (Dako, Denmark). The resulting single cells were spun down at 1500 rpm and washed five times with PBS. Phage adherent to the cells were rescued by infecting BL21 bacteria (Novagen), and the phage quantified by plaque assay.

[7] = test system: breast tissue; experiment: In vivo blocking of breast homing of phage by co-injected agents; conditions: mice
Method: as §1, §2

[8] = test system: mitochondrial membranes; experiment: Mitochondrial swelling assay; conditions: at a concentration of 10 μM
Excerpt: In one embodiment, the invention provides a conjugate in which the antimicrobial peptide portion promotes disruption of mitochondrial membranes when internalized by eukaryotic cells. In particular, such an antimicrobial peptide preferentially disrupts mitochondrial membranes as compared to eukaryotic membranes. Mitochondrial membranes, like bacterial membranes but in contrast to eukaryotic plasma membranes, have a high content of negatively charged phospholipids. An antimicrobial peptide can be assayed for activity in disrupting mitochondrial membranes using, for example, an assay for mitochondrial swelling (as described in Example I) or another assay well known in the art. […] An antimicrobial peptide that induces significant mitochondrial swelling at, for example, 50 μM, 40 μM, 30 μM, 20 μM, 10 μM, or less, is considered a peptide that promotes disruption of mitochondrial membranes.

Sequence of human membrane-bound aminopeptidase P (O43895 22-649): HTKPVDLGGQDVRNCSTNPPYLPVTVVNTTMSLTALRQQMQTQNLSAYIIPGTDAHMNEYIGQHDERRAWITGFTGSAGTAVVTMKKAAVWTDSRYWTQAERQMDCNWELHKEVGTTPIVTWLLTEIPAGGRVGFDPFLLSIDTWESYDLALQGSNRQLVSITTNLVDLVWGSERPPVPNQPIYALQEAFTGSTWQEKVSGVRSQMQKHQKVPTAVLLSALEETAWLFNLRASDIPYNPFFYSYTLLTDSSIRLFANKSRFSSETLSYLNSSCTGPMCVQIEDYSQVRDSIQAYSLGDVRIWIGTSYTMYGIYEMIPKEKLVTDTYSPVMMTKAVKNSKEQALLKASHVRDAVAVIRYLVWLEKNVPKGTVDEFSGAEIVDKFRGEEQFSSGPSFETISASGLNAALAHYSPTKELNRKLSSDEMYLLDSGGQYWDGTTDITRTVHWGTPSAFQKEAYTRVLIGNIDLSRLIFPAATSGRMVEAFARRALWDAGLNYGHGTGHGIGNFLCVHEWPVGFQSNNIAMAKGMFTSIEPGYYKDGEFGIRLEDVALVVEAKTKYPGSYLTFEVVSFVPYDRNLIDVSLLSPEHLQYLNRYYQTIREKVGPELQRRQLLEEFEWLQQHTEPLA

Row | Compound | IC50 [3] [µM] | IC50 [4] [µM] | further results
1 | C[C@H](NC(=O)[C@@H]1CCCN1C(=O)C1CCCC1S)C(N)=O (single isomer, unassigned) [Compound 11] | 150 | 300 | IC50 [1]: 390 µM; IC50 [2]: 300 µM
2 | C[C@H](NC(=O)[C@@H]1CCCN1C(=O)C1CCCCC1C(=O)NO)C(N)=O (single isomer, unassigned) [Compound 12] | 37 | 50 | 
3 | C[C@H](NC(=O)[C@@H]1CCCN1C(=O)[C@@H]1CCCN1C(=O)[C@@H](O)[C@H](N)Cc1ccccc1)C(N)=O [Compound 1, apstatin] | 4.1 | 9.4 | effect on binding of aminopeptidase P encoding phage to insolubilized CPGPEGAGC peptide [5]: blocked; Ki ([3]; Yoshimoto et al. 1994): 2.6 µM; Ki ([4]; in brackets in the IC50 cell of Table 2): 7.8 µM
4 | NC(=O)C1CCCN1C(=O)C1CCCN1C(=O)C(O)C(N)Cc1ccccc1 (stereo not shown) [Compound 3] | 390 | 1300 | 
5 | CC(NC(=O)C1CCCN1C(=O)C1CCCN1C(=O)C(O)C(N)Cc1ccccc1)C(=O)NCCC(=O)NC(CS)C(N)=O (stereo not shown) [Compound 4] (X1-PPA[βAla]C-NH2; configuration not given here) | 0.66 |  | 
6 | CC(C)C[C@@H](N)[C@H](O)C(=O)N1CCC[C@H]1C(=O)N[C@@H](C)C(N)=O [Compound 5] | 0.56 | 4.5 | 
7 | CC(C)C[C@H](N)[C@@H](O)C(=O)N1CCC[C@H]1C(=O)N[C@@H](C)C(N)=O [Compound 6] | 0.31 | 2.1 | 
8 | CC(C)C[C@@H](N)[C@@H](O)C(=O)N1CCC[C@H]1C(=O)N[C@@H](C)C(N)=O [Compound 7] | 19 | 50 | 
9 | CC(C)C[C@H](N)[C@H](O)C(=O)N1CCC[C@H]1C(=O)N[C@@H](C)C(N)=O [Compound 8] | 100 | 470 | 
10 | CC(NC(=O)C1CCCN1C(=O)C1CCCC1S)C(N)=O (stereo not shown) [Compound 10] | 3.4 |  | IC50 [1]: 29 µM
11 | CPGPEGAGC (also: cyclized (mode not given here)) [breast homing cyclic peptide, synthesized, cyclized and purified by HPLC] |  |  | selective homing identified by in vivo panning [6]: selectively homing to breast tissue; effect of coinjection on recovery of CPGPEGAGC phage from breast tissue ([7]; 0.5 ml of 2 mg/ml free peptide coinjected): markedly reduced; effect on breast homing / recovery of CRSS phage ([7]; anti-aminopeptidase P antiserum or 1 mg free peptide): no effect; effect on binding of aminopeptidase P encoding phage to insolubilized CPGPEGAGC peptide [5]: blocked
12 | CRSS [CRSS (SEQ ID NO: 3)] |  |  | selective homing identified by in vivo panning [6]: selectively homing to breast tissue
13 | CRTS [CRTS (SEQ ID NO: 4)] |  |  | selective homing identified by in vivo panning [6]: selectively homing to breast tissue
14 | D(KLAKLAK)2 |  |  | mitochondrial swelling [8]: marked mitochondrial swelling
